Laboratory results published in PMC3086806, “Mining a Cathepsin Inhibitor Library for New Antiparasitic Drug Leads” (PLoS Neglected Tropical Diseases, 2011).

What was measured:
human cathepsin B = target: human cathepsin B; design: method as in data provided by Celera Genomics; conditions: historical data; ref data provided by Celera Genomics; read-out: Ki catB; cited from earlier work
human cathepsin L = target: human cathepsin L; design: method as in data provided by Celera Genomics; conditions: historical data; ref data provided by Celera Genomics; read-out: Ki catL; cited from earlier work
[1] = Jurkat cell cytotoxicity assay; assay type: cell-based; conditions: human, Jurkat cells (clone E6-1), read-out: Cytotoxicity (% inhibition at 10 µM) Jurkat cells
Method: (§1) Jurkat cells (clone E6-1) were grown in complete RPMI-1640 medium containing 10% FBS, 50 U/mL penicillin and 50 µg/mL streptomycin (Invitrogen) at 37°C under a humidified atmosphere and 5% CO2. For cytotoxicity testing, cells were diluted to 1×10^5 per ml in complete RPMI-1640 medium. Test compound stocks were prepared in 100% DMSO and screened at 10 µM against cells (1×10^4 cells per well) in sterile Greiner 96-well flat white opaque culture plates (0.5% final DMSO concentration). The 0% inhibition control wells contained 0.5% DMSO while 100% inhibition control wells contained 40 µM staurosporine. After compound addition, plates were incubated for 40 hr at 37°C. At the end of the incubation period, 50 µL of CellTiter-Glo™ reagent (Promega Inc., Madison, WI, USA) was added to each well and plates were placed on an orbital shaker at room temperature for 2 min to induce lysis. After a further 10 min incubation without shaking to stabilize the signal, the ATP-bioluminescence of each well was determined using an Analyst HT plate reader (Molecular Devices, Sunnyvale, CA, USA). Calculations of percentage inhibition and IC50 were performed similar to those in the T. brucei brucei assay.

[2] = system: W2-strain P. falciparum parasites; test: P. falciparum growth inhibition assay; assay type: cell-based, Plasmodium falciparum; conditions: cultured W2 strain, 48 hours
Method: The growth inhibition assay for P. falciparum was conducted as described previously. W2-strain P. falciparum parasites (1% parasitemia, 2% hematocrit) were cultured at 37°C in human red blood cells under the atmosphere of 3% O2, 5% CO2 balance N2 in 0.2 mL of per well in medium RPMI-1640 supplemented with 10% human serum in duplicate 96-well flat bottom culture plates in the presence of inhibitors. Tested compounds were serially diluted 1∶3 in the range 10,000 – 4.6 nM, with maximum DMSO concentration of 0.1%. Following 48 hours of incubation, the medium was removed and the cells were fixed in 2% formaldehyde in PBS. Parasite growth was evaluated by flow cytometry on a FACsort (Becton Dickinson) equipped with AMS-1 loader (Cytek Development) after staining with 1 nM DNA dye YOYO-1(Molecular Probes) in 100 mM NH4Cl, 0.8% NaCl. Parasitemias were determined from dot plots (forward scatter vs. fluorescence) using […] software (Becton Dickinson). IC50 values for growth inhibition were determined from plots of percentage control parasitemia over inhibitor concentration using GraphPad Prism software.

falcipain-3 = target: T1, falcipain-3 (Plasmodium falciparum, UniProt Q8IIL0); test: Falcipain-3 protease inhibition assay (Z-Leu-Arg-AMC); assay type: biochemical; conditions: read-out: IC50 falcipain-3
T1 construct: made in house
T1 sequence (Q8IIL0 243-492): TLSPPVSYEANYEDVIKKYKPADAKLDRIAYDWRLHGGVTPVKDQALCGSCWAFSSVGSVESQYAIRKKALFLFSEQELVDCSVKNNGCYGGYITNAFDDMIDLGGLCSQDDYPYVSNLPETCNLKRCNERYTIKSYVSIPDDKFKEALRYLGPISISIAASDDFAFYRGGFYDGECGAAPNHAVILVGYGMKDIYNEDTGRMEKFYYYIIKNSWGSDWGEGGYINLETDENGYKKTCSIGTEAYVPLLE
Method: (§2) Recombinant cruzain, rhodesain, TbCatB, falcipain-2 and falcipain-3 were expressed as described previously, [39], [40], [41], [42]. Inhibitor stock solutions were prepared in DMSO and screened at 0.1 µM for cruzain and rhodesain, 1 µM for TbCatB and 50 nM for falcipain-3 (0.5% DMSO in assay). […] Protease inhibition assays for cruzain and rhodesain were carried out in 96 well plate format as described previously. Cruzain (4 nM), rhodesain (4 nM) or TbCatB (258 nM) was incubated with test compound in 100 mM sodium acetate, pH 5.5, containing 5 mM DTT and 0.01% Triton X-100 (buffer A), for 5 min at room temperature (the higher concentration of TbCatB was required due to its lower intrinsic activity against the fluorogenic substrate). Then buffer A containing Z-Phe-Arg-AMC (Bachem) was added to enzyme-compound mixture to give 10 µM substrate in a final assay volume of 200 µL. The rate of free AMC release was measured at excitation and emission wavelengths of 355 and 460 nm, respectively, with a microtiter plate spectrofluorimeter (SpectraMax M5, Molecular Devices) for 3 min. Percentage inhibition of test compound was calculated relative to the DMSO control (0% inhibition control). IC50 values were determined with Prism 4 software (GraphPad, San Diego, CA) using sigmoidal dose-response variable slope model.
(§3) Protease inhibition assays for falcipain-2 and falcipain-3 were carried out in 96 well plate format as described previously, [43] with modification for end-point readout. Falcipain-2 (21 nM) or falcipain-3 (78 nM) was incubated with test compound for 10 min at room temperature in 200 mM sodium acetate, pH 6, 10 mM DTT and 3.6% glycerol and 0.01% Triton X-100 (buffer B). Then buffer B containing Z-Leu-Arg-AMC (Bachem) was added to the enzyme-compound mixture to give 25 µM substrate in a final assay volume of 200 µL. After 15 min, 50 µL of 5 M acetic acid was added to each well to stop the reaction. End-point fluorescence was read in a spectrofluorimeter as above. The 0% inhibition control wells contained DMSO while 100% inhibition control wells contained 50 µM E-64 (Sigma). Percentage inhibition of test compound was calculated relative to the controls and IC50 curve fitting was performed with Prism 4 software as above.

falcipain-2 = target: T2, falcipain-2 (Plasmodium falciparum, UniProt Q8I6U4); test: Falcipain-2 protease inhibition assay (Z-Leu-Arg-AMC); assay type: biochemical
T2 construct: made in house
T2 sequence (Q8I6U4 244-484): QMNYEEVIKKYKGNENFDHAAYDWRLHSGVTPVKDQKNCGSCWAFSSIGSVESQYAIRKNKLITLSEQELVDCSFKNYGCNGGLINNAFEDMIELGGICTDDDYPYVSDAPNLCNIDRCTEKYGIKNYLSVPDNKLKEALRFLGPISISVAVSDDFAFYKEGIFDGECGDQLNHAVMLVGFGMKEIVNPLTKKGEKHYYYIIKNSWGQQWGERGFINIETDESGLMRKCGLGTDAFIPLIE
Method: as §2, §3

rhodesain = target: T3, rhodesain (Trypanosoma brucei rhodesiense, UniProt Q95PM0); test: Rhodesain protease inhibition assay (Z-Phe-Arg-AMC); assay type: biochemical
T3 construct: made in house
T3 sequence (Q95PM0 entry or part of it): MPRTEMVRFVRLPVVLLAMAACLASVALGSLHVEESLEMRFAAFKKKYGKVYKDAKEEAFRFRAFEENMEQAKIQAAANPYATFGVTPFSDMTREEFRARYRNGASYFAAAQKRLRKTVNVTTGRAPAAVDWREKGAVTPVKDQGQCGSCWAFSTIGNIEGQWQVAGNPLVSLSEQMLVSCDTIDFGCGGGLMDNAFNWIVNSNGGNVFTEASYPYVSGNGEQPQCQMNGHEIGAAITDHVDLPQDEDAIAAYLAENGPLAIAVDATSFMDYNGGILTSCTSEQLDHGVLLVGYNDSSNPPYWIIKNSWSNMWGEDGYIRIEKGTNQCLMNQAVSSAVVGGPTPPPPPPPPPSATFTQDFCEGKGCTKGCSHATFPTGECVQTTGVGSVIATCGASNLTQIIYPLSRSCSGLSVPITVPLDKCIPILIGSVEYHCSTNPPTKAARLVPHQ
Method: as §2

cruzain = target: T4, cruzain (Trypanosoma cruzi, UniProt P25779); test: Cruzain protease inhibition assay (Z-Phe-Arg-AMC); assay type: biochemical
T4 construct: made in house
T4 sequence (P25779 123-467): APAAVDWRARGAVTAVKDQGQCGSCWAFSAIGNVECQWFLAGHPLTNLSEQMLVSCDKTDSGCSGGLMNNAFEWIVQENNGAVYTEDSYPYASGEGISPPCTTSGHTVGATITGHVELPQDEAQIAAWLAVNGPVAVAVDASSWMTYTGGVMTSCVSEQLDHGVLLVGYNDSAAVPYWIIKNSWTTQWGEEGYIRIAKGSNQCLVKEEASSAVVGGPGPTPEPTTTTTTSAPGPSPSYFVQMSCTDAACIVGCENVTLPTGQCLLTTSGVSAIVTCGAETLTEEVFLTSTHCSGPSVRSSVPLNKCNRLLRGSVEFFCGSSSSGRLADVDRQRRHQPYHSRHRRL
Method: as §2

[3] = system: Jurkat cells (clone E6-1); test: Jurkat cell cytotoxicity assay; assay type: cell-based; conditions: 40 hr
Method: as §1

[4] = system: bovine embryo skeletal muscle (BESM) cells; test: Toxicity toward host BESM cells in the T. cruzi assay; assay type: cell-based; conditions: 20 µM
Method: (§4) The growth inhibition assay for the intracellular T. cruzi was conducted in 96-well plate format as described previously. Briefly, bovine embryo skeletal muscle (BESM) cells (2×10^3/well), seeded overnight, were infected with CA-I/72 T. cruzi trypomastigotes (2×10^3/well). Sixteen hours post-infection, test compounds (serial dilution concentrations starting from 20 µM) were added and assay plates were incubated for an additional 72 hours at 37°C with 5% CO2. Cells were then washed once in PBS, fixed with 4% paraformaldehyde and stained with DNA fluorescent dye DAPI (4′ 6-diamidino-2-phenylindole). The assay plates were then imaged in the IN Cell Analyzer 2000 (GE Healthcare) with the excitation and emission filters set of 350 nm and 460 nm, respectively, to detect DAPI signals. The feature extraction module in IN Cell Developer Toolbox 1.7 software was used to count host nuclei and parasite kinetoplasts by size difference.
All falcipain-3 inhibitors were also tested against falcipain-2. […] The entire library was examined for cytotoxicity to a mammalian cell line (Jurkat) at a concentration of 10 µM, and those compounds studied in the T. cruzi assay were also evaluated for toxicity (at 20 µM) toward the host BESM cells used in that assay. […]

[5] = system: T. brucei brucei clone 427-221a bloodstream forms; test: T. brucei brucei growth inhibition assay; assay type: cell-based; conditions: Trypanosoma brucei; 40 hours
Method: The growth inhibition assay for T. brucei brucei was conducted as described previously. Bloodstream forms of the monomorphic T. brucei brucei clone 427-221a were grown in complete HMI-9 medium containing 10% FBS, 10% Serum Plus medium (Sigma Inc. St. Louis Mo. USA), 50 U/mL penicillin and 50 µg/mL streptomycin (Invitrogen) at 37°C under a humidified atmosphere and 5% CO2. […] 5 µL of each dilution was added to 95 µL of diluted parasites (1×10^4 cells per well) in sterile Greiner 96-well flat white opaque culture plates such that the final DMSO concentration was 0.5%. The 0% inhibition control wells contained 0.5% DMSO while 100% inhibition control wells contained 50 µM thimerosal (Sigma). After compound addition, plates were incubated for 40 hours at 37°C. At the end of the incubation period, 50 µL of CellTiter-Glo™ reagent (Promega Inc., Madison, WI, USA) was added to each well and plates were placed on an orbital shaker at room temperature for 2 min to induce lysis. After an additional 10 min incubation without shaking to stabilize the signal, the ATP-bioluminescence of each well was determined using an Analyst HT plate reader (Molecular Devices, Sunnyvale, CA, USA). Raw values were converted to log10 and percentage inhibition calculated relative to the controls. IC50 curve fittings were performed with Prism 4 software as above.

[6] = system: intracellular T. cruzi (CA-I/72) in BESM cells; test: T. cruzi amastigote growth inhibition assay; assay type: cell-based; conditions: Trypanosoma cruzi; infected BESM cells, 72 hours
Method: as §4

TbCatB = target: T5, TbCatB (Trypanosoma brucei, UniProt Q6R7Z5); test: TbCatB protease inhibition assay (Z-Phe-Arg-AMC); assay type: biochemical
T5 construct: made in house
T5 sequence (Q6R7Z5 23-340): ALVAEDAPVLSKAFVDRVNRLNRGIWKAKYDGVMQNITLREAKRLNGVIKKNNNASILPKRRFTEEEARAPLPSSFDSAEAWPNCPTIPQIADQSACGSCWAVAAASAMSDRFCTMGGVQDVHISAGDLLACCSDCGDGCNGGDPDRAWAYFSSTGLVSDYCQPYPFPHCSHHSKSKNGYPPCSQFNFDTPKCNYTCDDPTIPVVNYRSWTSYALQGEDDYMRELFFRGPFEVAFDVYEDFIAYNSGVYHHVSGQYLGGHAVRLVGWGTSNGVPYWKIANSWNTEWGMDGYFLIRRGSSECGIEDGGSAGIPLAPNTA
Method: as §2

| Compound | Ki (human cathepsin B) [nM] | Ki (human cathepsin L) [nM] | cytotoxicity at 40 h, 10 µM [1] [%] | GI50 ([2]; Plasmodium falciparum, read-out: GI50 P. falc. W2) [nM] | GI50 P. falc. W2 [2] | IC50 (falcipain-3) [nM] | IC50 (falcipain-2) [nM] | IC50 (rhodesain) [nM] | IC50 (cruzain) [nM] | Cytotoxicity (% inhibition at 10 µM) Jurkat cells [3] | Inhibition of growth of BESM cells [4] [%] | GI50 [5] [nM] | GI50 [6] [nM] | IC50 (TbCatB) [nM] |
| --- | --- | --- | --- | --- | --- | --- | --- | --- | --- | --- | --- | --- | --- | --- |
| CC(C)CC(NC(c1ccc(-c2ccc(S(C)(=O)=O)cc2)cc1)c1nccs1)C(=O)NC1(C#N)CC1 (centres unmarked) [Compound 21] | 6700 | 32 | < 5 | 870 | sub-micromolar | 2.4 | 2 |  |  |  |  |  |  |  |
| CC(C)CC(NC(=O)c1ccc(-c2csc(Nc3ccncc3)n2)cc1)C(=O)NCCN(CC(C)C)CC(C)C (centres unmarked) [Compound 22] | 4500 | 71 | < 5 |  |  |  |  | 640 | 1600 | did not inhibit the growth | ~90 | 200 | 800 |  |
| CCC[C@H](NC(=O)C1(NC(=O)c2ccc(-c3csc(N4CCN(C)CC4)n3)cc2)CCCCC1)C(=O)c1nc2ccccc2o1 [Compound 23a] | 320 | 1100 | < 5 |  |  |  |  | 3900 | 30 |  |  | 4200 | 19000 | 70 |
| CCCC[C@H](NC(=O)C1(NC(=O)c2ccc(-c3csc(N4CCN(C)CC4)n3)cc2)CCCCC1)C(=O)c1nc2ccccc2o1 [Compound 23b] | 610 | 280 | < 5 |  |  |  |  | 5000 | 380 |  |  | 10500 | 7700 | 1 |
